Measured values as given in ChEMBL document CHEMBL1155342, “Design, synthesis and analgesic properties of novel conformationally-restricted N-acylhydrazones (NAH)” (2009).

Key:
Mus musculus [1] = assay: Antinociceptive activity in mouse assessed as inhibition of acetic acid-induced abdominal constrictions at 100 umol/kg, po relative to untreated control; type: functional; conditions: Abdomen
Mus musculus [2] = assay: Antinociceptive activity in po dosed mouse assessed as inhibition of acetic acid-induced abdominal constrictions; type: functional; conditions: Abdomen

| SMILES | inhibition in vivo at 100 µmol/kg (Mus musculus [1]) [%] | ED50 (Mus musculus [2]) [µmol/kg] |
| --- | --- | --- |
| COc1ccc(C(=O)N/N=C/c2ccccc2)cc1 | 54 | 9.2 |
| COc1ccc(-c2nnc3ccc(-c4ccccc4)nn23)cc1 | 22 | – |
| COc1ccc(C(=O)N(C)/N=C/c2ccccc2)cc1 | 50 | 5.9 |
| COC1=CC2N=CN=C(N/N=C/c3ccccc3)C2C=C1 (centres undefined) | 28 | – |
| COc1ccc2c(=O)n(/N=C/c3ccccc3)cnc2c1 | 48 | 4.2 |
| COc1ccc(C(=O)n2nc(-c3ccccc3)cc2C)cc1 | 50 | 5.1 |
| COc1ccc2c(c1)CC(c1ccccc1)=NNC2=O | 36 | – |
| CC(=O)Nc1ccc(O)cc1 [ACETAMINOPHEN] | 36 | – |
| COc1ccc2c(c1)c(CC(=O)O)c(C)n2C(=O)c1ccc(Cl)cc1 [INDOMETHACIN] | 42 | 56.2 |
